# Measured values taken from ChEMBL document CHEMBL5465560, “Selectivity Literature for EUbOPEN Chemogenomic Library” (2024).
# What was measured:
# [1] = biological target: T1, Mitogen-activated protein kinase kinase kinase 19 (Homo sapiens) (UniProt Q56UN5); experiment: Selectivity interaction (Kinase panel (Z-LYTE Assay)) EUB0001632a MAP3K19; conditions: at 10 µM
# T1 sequence (whole entry): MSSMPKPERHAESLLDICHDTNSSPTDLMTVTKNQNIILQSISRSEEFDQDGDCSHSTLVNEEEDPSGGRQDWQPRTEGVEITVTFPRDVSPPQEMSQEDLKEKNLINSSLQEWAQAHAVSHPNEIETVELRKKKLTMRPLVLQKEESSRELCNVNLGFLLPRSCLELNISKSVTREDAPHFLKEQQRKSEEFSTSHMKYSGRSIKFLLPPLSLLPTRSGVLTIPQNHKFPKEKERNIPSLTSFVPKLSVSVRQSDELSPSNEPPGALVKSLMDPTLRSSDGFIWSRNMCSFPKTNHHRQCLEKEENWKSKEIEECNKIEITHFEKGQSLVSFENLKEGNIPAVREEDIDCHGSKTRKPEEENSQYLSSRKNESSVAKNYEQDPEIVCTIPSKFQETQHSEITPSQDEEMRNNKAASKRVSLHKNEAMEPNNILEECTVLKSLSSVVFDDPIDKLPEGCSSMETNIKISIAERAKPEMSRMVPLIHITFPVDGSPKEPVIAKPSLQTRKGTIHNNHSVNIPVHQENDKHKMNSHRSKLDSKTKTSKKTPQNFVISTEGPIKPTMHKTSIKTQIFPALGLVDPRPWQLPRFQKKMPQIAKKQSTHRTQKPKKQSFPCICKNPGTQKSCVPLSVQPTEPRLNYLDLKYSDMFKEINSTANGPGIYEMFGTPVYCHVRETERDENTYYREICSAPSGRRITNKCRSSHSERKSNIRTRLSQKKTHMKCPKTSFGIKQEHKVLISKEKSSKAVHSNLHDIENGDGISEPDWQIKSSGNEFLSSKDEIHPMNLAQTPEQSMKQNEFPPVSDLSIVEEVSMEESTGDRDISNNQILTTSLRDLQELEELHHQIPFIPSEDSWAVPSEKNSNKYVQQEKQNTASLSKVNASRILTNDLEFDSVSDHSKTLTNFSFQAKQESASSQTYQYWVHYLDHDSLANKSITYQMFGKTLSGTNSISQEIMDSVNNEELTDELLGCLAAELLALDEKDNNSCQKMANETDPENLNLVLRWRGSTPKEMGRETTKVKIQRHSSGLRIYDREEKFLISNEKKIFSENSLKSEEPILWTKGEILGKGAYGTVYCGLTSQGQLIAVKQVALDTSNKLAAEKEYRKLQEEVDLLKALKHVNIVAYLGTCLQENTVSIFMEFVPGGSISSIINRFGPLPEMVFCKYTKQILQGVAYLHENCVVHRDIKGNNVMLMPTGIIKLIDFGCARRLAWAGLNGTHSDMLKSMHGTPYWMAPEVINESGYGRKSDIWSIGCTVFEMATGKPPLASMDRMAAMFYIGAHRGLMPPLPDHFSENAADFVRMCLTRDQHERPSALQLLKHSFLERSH
# [2] = biological target: Mitogen-activated protein kinase 14 (Homo sapiens, UniProt Q16539); experiment: Selectivity interaction (Kinase panel (DSF assay)) EUB0001559a MAPK14
# Mitogen-activated protein kinase 14, sequence (Q16539 whole entry): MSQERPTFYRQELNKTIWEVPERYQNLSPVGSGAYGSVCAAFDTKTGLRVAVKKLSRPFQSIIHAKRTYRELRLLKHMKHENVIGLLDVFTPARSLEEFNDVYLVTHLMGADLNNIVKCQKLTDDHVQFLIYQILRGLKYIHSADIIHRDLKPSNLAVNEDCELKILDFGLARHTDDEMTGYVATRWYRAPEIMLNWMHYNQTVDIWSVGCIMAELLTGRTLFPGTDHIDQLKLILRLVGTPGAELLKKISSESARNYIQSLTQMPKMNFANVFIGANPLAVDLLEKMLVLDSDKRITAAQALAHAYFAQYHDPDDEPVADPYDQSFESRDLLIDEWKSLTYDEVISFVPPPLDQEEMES
# [3] = biological target: Ribosomal protein S6 kinase alpha-3 (Homo sapiens, UniProt P51812); experiment: Selectivity interaction (Kinase screening (Nanosyn)) EUB0000604a RPS6KA3
# Ribosomal protein S6 kinase alpha-3, sequence (P51812 whole entry): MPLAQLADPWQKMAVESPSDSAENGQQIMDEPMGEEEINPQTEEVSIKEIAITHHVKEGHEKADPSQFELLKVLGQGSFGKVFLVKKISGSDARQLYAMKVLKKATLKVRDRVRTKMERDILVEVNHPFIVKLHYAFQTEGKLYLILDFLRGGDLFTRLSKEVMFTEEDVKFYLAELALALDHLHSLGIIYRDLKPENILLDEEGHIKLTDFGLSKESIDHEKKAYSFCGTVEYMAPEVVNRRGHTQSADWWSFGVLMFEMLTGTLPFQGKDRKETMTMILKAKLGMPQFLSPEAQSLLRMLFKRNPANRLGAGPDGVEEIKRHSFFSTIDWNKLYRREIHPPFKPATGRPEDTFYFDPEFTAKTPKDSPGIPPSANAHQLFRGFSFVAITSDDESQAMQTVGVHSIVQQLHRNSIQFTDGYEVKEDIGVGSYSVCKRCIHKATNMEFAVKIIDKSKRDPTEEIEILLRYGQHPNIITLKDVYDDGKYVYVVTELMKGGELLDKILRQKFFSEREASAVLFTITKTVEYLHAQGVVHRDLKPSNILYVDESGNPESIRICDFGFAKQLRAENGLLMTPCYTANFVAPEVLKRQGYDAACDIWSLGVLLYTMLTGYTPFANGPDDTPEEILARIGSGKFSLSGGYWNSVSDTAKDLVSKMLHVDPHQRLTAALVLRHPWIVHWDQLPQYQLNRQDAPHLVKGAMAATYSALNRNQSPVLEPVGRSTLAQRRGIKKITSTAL
# [4] = biological target: T2, Dual specificity mitogen-activated protein kinase kinase 4 (Homo sapiens) (UniProt P45985); experiment: Selectivity interaction (KinomeScan (DiscoverX)) EUB0000229b MAP2K4; conditions: at 10 µM
# T2 sequence (whole entry): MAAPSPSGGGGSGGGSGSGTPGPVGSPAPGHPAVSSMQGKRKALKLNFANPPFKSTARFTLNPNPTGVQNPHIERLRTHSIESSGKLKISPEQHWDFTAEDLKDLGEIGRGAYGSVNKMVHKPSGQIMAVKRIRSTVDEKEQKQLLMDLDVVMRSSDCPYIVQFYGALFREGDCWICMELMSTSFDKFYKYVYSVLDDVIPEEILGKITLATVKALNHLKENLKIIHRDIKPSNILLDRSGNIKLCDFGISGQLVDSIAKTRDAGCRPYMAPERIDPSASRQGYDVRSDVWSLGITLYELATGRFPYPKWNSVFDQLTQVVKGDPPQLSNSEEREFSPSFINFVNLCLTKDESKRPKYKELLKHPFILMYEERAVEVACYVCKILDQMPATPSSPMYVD
# [5] = biological target: T3, Serine/threonine-protein kinase LATS1 (Homo sapiens) (UniProt O95835); experiment: Selectivity interaction (KinomeScan (DiscoverX)) EUB0001619a LATS1; conditions: at 1 µM
# T3 sequence (whole entry): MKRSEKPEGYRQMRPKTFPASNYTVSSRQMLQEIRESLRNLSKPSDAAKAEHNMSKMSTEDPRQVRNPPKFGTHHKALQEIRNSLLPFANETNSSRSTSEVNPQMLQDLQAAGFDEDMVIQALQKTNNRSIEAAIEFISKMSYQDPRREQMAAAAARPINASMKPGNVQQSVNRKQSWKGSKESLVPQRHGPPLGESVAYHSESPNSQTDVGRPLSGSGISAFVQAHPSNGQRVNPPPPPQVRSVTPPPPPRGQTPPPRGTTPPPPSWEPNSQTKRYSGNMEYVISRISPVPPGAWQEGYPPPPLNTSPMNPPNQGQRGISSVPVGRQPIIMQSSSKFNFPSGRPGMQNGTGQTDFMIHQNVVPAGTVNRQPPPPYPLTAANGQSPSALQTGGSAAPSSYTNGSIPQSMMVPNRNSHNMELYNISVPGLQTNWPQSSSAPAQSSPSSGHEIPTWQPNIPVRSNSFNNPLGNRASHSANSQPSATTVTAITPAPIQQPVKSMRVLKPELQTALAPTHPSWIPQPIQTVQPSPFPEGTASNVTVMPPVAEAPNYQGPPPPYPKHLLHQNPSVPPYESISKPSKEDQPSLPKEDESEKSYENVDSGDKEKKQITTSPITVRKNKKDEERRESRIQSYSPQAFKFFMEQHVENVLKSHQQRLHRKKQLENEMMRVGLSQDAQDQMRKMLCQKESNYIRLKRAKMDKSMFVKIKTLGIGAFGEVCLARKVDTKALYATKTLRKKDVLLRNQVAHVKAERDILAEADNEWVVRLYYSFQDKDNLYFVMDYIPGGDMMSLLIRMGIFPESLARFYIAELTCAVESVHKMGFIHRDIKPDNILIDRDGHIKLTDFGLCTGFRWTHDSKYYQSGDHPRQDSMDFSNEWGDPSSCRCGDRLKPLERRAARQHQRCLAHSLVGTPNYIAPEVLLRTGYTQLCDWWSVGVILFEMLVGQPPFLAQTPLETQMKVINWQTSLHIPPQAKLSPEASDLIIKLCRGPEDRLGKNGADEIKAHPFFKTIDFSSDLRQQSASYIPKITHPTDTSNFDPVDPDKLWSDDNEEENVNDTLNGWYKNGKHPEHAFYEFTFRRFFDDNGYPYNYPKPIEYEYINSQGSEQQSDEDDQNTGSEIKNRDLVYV
smiles,measurement,setting,value
Cn1cc(-n2cnc3c(NCc4nc5cc(Cl)c(Cl)cc5[nH]4)nc(N4CCOCC4)nc32)cn1,% of control,[1],-3.06%
CN(C(=O)c1cnn2cccnc12)c1cc2c(cc1N1CCOCC1)C(=O)N(C[C@@H](F)C(C)(C)O)C2,dTM,[2],-0.3 K
Cc1cnc(Nc2ccc(F)cc2Cl)nc1-c1c[nH]c(C(=O)N[C@H](CO)c2cccc(Cl)c2)c1,% of inhibition,[3],6%
COc1cc(N(C)c2ccnc3ccc(C(F)(F)F)cc23)cc(OC)c1OC,% binding,[4],100%
N#Cc1cccc(-c2c[nH]c3ncnc(N4CCOCC4)c23)c1,% of control,[5],100%
